# According to patent publication US9751869B2, “LXR modulators” (BRISTOL-MYERS SQUIBB COMPANY, priority 2013, dated 2017):
# Target: T1, LXRβ (Homo sapiens, UniProt P55055)
# T1 construct: Co-transfection expression plasmids, comprising full-length LXRα (pCMX-h LXRα or LXRβ (pCMX-hLXRβ)); expressed in transfected cells; host or cells: CV-1 African green monkey kidney cells, transient transfection with pCMX-hLXRβ
# T1 sequence (P55055 1-460): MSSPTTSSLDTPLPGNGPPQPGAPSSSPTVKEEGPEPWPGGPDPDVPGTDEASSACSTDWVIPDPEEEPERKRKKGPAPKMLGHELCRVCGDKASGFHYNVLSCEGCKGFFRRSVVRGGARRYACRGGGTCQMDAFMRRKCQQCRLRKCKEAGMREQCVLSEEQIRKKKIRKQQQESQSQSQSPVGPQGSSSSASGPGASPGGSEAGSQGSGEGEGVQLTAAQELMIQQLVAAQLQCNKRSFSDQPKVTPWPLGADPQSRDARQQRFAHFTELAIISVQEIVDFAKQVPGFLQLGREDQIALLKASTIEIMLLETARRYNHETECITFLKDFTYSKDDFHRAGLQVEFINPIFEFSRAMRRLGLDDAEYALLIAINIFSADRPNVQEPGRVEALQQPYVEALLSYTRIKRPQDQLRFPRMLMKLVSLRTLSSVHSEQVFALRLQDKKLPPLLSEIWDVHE
# T1 sequence (P19793 1-462 partner): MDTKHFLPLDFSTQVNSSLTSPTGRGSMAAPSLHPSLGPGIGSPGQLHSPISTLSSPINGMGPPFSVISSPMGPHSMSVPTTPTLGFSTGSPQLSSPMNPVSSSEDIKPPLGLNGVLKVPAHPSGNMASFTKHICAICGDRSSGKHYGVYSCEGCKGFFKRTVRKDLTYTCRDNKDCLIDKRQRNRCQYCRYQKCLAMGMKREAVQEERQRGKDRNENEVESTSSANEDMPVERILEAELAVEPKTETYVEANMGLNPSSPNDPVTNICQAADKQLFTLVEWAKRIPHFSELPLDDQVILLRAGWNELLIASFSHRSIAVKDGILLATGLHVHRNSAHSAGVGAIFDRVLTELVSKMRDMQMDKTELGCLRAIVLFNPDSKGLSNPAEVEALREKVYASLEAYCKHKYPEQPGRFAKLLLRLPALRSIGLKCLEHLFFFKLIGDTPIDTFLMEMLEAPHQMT
# Experiment: LXR/LXRE co-transfection assay (luciferase reporter) in CV-1 cells, LXRβ
# Format: cell-based
# Details: for EC50: CV-1 cells transfected with pCMX-hLXRβ and LXREx1-Tk-Luciferase, 20 hours incubation, read-out: LXRbeta agonism EC50; for Emax: CV-1 cells, relative to maximum response of high control N-(3-((4-fluorophenyl)-(naphthalene-2-sulfonyl)amino)propyl)-2,2-dimethylpropionamide, read-out: LXRbeta % EFFICACY
# Method in brief: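 CV-1 cells transiently co-transfected with full-length human LXRβ, LXRE-Tk-luciferase reporter and β-galactosidase control, then exposed to compound (≤0.5% DMSO) for 20 h at 37 °C before luminescence read. EC50 from 10-point, half-log dose curves; efficacy relative to the sulfonamide high control, means of 2–3 experiments.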
Structure (SMILES),EC50,Emax
"Cc1nc(-c2ccc3c(c2)OC(F)(F)O3)c(-c2cc(-c3cc(F)c(CO)c(S(C)(=O)=O)c3)ccc2-c2cc(C(F)(F)C(=O)NC3CC3)nn2C)o1 [Example 88, N-cyclopropyl-2-(5-(3-(4-(2,2-difluorobenzo[d][1,3]dioxol-5-yl)-2-methyloxazol-5-yl)-3′-fluoro-4′-(hydroxymethyl)-5′-(methylsulfonyl)biphenyl-4-yl)-1-methyl-1H-pyrazol-3-yl)-2,2-difluoroacetamide]",85 nM,49%
"Cc1nc(-c2cc(-c3cc(F)c(CO)c(S(C)(=O)=O)c3)ccc2-n2nc(C(F)(F)F)cc2Cl)c(-c2ccc3c(c2)OC(F)(F)O3)o1 [Example 411, (4′-(5-chloro-3-(trifluoromethyl)-1H-pyrazol-1-yl)-3′-(5-(2,2-difluorobenzo[d][1,3]dioxol-5-yl)-2-methyloxazol-4-yl)-3-fluoro-5-(methylsulfonyl)biphenyl-4-yl)methanol]",19 nM,90%
"Cc1nc(-c2ccc(OC(F)F)cc2)c(-c2cc(-c3cc(F)c(CO)c(S(C)(=O)=O)c3)ccc2-n2nc(C(F)(F)F)cc2C)o1 [Example 325, (3′-(4-(4-(difluoromethoxy)phenyl)-2-methyloxazol-5-yl)-3-fluoro-4′-(5-methyl-3-(trifluoromethyl)-1H-pyrazol-1-yl)-5-(methylsulfonyl)biphenyl-4-yl) methanol]",12 nM,78%
"Cc1nc(-c2ccc(OC(F)(F)F)cc2)c(-c2cc(-c3cc(F)c(CO)c(S(C)(=O)=O)c3)ccc2-n2ccc(COC(N)=O)n2)o1 [Example 375, (1-(3′-fluoro-4′-(hydroxymethyl)-3-(2-methyl-4-(4-(trifluoromethoxy)phenyl)oxazol-5-yl)-5′-(methylsulfonyl)-[1,1′-biphenyl]-4-yl)-1H-pyrazol-3-yl) methyl carbamate]",198 nM,62%

# Other lines, results leading:
EC50,Emax,Structure (SMILES)
57 nM,87%,"Cn1nc(C(C)(F)F)cc1-c1ccc(-c2cccc(S(C)(=O)=O)c2)cc1-n1nncc1-c1ccc(OC(F)(F)F)cc1 [Example 18, 1-{4-[3-(1,1-difluoroethyl)-1-methyl-1H-pyrazol-5-yl]-3′-(methylsulfonyl)biphenyl-3-yl}-5-{4-[(trifluoromethyl)oxy]phenyl}-1H-1,2,3-triazole]"
903 nM,81%,"Cn1nc(C(F)(F)CO)cc1-c1ccc(-c2cc(F)c(CO)c(S(C)(=O)=O)c2)cc1-n1nncc1-c1ccc(OC(F)(F)F)cc1 [Example 26, 2,2-difluoro-2-(5-(3′-fluoro-4′-(hydroxymethyl)-5′-(methylsulfonyl)-3-(5-(4-(trifluoromethoxy)phenyl)-1H-1,2,3-triazol-1-yl)-[1,1′-biphenyl]-4-yl)-1-methyl-1H-pyrazol-3-yl)ethanol]"
501 nM,107%,"Cn1nc(C(F)(F)C(=O)NC(C)(C)CO)cc1-c1ccc(-c2cccc(S(C)(=O)=O)c2)cc1-n1nncc1-c1ccc(OC(F)(F)F)cc1 [Example 28, 2,2-difluoro-N-(1-hydroxy-2-methylpropan-2-yl)-2-(1-methyl-5-(3′-(methylsulfonyl)-3-(5-(4-(trifluoromethoxy)phenyl)-1H-1,2,3-triazol-1-yl)-[1,1′-biphenyl]-4-yl)-1H-pyrazol-3-yl)acetamide]"
1560 nM,47%,"Cn1nc(C(=O)NC(C)(C)C#N)cc1-c1ccc(-c2cccc(S(C)(=O)=O)c2)cc1-n1nncc1-c1ccc(OC(F)(F)F)cc1 [Example 37, N-(1-cyano-1-methylethyl)-1-methyl-5-[3′-(methylsulfonyl)-3-(5-{4-[(trifluoromethyl)oxy]phenyl}-1H-1,2,3-triazol-1-yl)biphenyl-4-yl]-1H-pyrazole-3-carboxamide]"
